Data as given in US5866787A, “Transgenic plants co-expressing a functional human 2-5A system” (Cleveland Clinic Foundation, priority 1995, dated 1999).
One block for each molecule: values may come before it.

Columns and labels:
[1] = test system: murine 2-5A-dependent RNase (truncated recombinant clone ZB1 and murine L cell enzyme); test: UV covalent crosslinking of 32P-2-5A probe with unlabeled oligonucleotide competitors, murine enzyme; type: binding; conditions: for competition with 2-5A probe binding: competitor 100 nM, recombinant 74 kDa protein produced in wheat germ extract
Experimental: FIG. 2A is a specific affinity of truncated murine 2-5A-dependent RNase for 2-5A. UV covalent crosslinking of the ^32 P-2-5A probe (lanes 1-7) to protein is performed after translation reactions in wheat germ extract (5 μl) with murine 2-5A-dependent RNase mRNA (from clone ZB1) (lanes 1-3) or without added RNA (lane 4) or in extract of interferon treated mouse L cells (100 μg of protein) (lanes 5-7). Reactions are without added competitor (lanes 1, 4, and 5) or in the presence of either timer core. (A2'p)2 A, (100 nM) (lanes 2 and 6) or timer 2-5A, p3 (A2'p)2 A (100 nM) (lanes 3 and 7).
Autoradiograms of the dried SDS/10% polyacrylamide gels are shown. Concentrations of the oligonucleotide competitors are indicated. […].
(§1) The synthesis of the 2-5A probe, p(A2'p)2 (br^8 A2'p)2 A[32P]Cp, and its crosslinking to 2-5A-dependent RNase is performed exactly as described. See Nolan-Sorden, N. L. et al., Anal. Biochem., 184:298-304 (1990). Briefly, the 2-5A probe, about 0.7 to 2.5 nM at […], is incubated for about one hour on ice with cell extract prepared as described, Silverman, R. H. and Krause, D., I.R.L. Press, Oxford, England, pp. 149-193 (1987), in the absence or presence of unlabeled oligonucleotide competitors. Covalent crosslinking is done under a uv lamp (308 nm) for one hour on ice and the proteins are separated on SDS/10% polyacrylamide gels. Filter assays for 2-5A binding activity using the 2-5A probe for about one hour on ice, as described in Knight, M. et al., Nature, 288:189-192 (1980).

[2] = test system: recombinant human 2-5A-dependent RNase; test: UV covalent crosslinking of 2-5A probe with competitors, human enzyme; type: binding; conditions: competitor 100 nM; recombinant human enzyme produced in wheat germ extract
Experimental: FIG. 5A is specific affinity of recombinant human 2-5A-dependent RNase for 2-5A. Crosslinking of the 2-5A probe (lanes 1-7) to protein is performed after translation reaction in wheat germ extract (5 λl) with human 2-5A-dependent RNase mRNA (lanes 1-3) or without added RNA (lane 4) or in extract of human interferon a treated (1000 units per ml for 16 h) human HeLa cells (350 μg of protein) (lanes 5-7). Reactions were without added competitor (lanes 1, 4, and 5) or in the presence of either timer core, (A2'p)2 A, (100 nM) (lanes 2 and 6) or timer 2-5A, p3 (A2'p)2 A (100 nM) (lanes 3 and 7). Incubations with ^35 S-methionine are shown in lanes 8 to 12. Lane 8 is with wheat germ extract and human 2-5A-dependent RNase mRNA. Reticulocyte lysate preadsorbed to 2-5A-cellulose is incubated with human 2-5A-dependent RNase mRNA in the absence (lane 9) or presence (lane 10) of cycloheximide, or in the absence of added mRNA (lane 11). […] The positions and relative molecular masses (in kDa) of the marker proteins are indicated.
The synthesis of the 2-5A probe, p(A2'p)2 (br^8 A2'p)2 A[32P]Cp, and its crosslinking to 2-5A-dependent RNase is performed exactly as described. See Nolan-Sorden, N. L. et al., Anal. Biochem., 184:298-304 (1990). […]

2-5A probe = test: 2-5A binding activity of nested 3'-deletion clones (filter binding and uv crosslinking); conditions: produced in wheat germ extract
Description: See Example and Knight et al. 1980). The positions of the P-loop motifs and the lengths of the translation products are indicated. Clone ZB1 encodes for amino acids designated as 1-656 in Table 2, except for the last 5 amino acid residues which are Lys, Pro, Leu, Ser, and Gly. Clone ZB2 encodes for amino acids designated as 1-619 in Table 2. Clone ZB3 encodes for amino acids designated as 1-515 in Table 2. Clone ZB5 encodes for amino acids designated as 1-474 in Table 2. Clone ZB9 encodes for amino acids designated as 1-403 in Table 2. Clone ZB10 encodes for amino acids designated as 1-365 in Table 2. Clone ZB13 encodes for amino acids designated as 1-294 in Table 2. Clone ZB14 encodes for amino acids designated as […] in Table 2. Clone ZB15 encodes for amino acids designated as 1-218 in Table 2.
The set of nested 3'-deletions of the truncated murine 2-5A-dependent RNase cDNA, ZB1, is generated with exonuclease III/S1 nuclease digestion followed by filling-in with Klenow DNA Polymerase using the "Erase-A-Base" system (Promega).
as §1

[3] = 2-5A probe 2.4 nM, both recombinant and naturally occurring protein

- competition with 2-5A probe binding [2]: effectively competes
Molecule: p3 (A2'p)2 A
- concentration that prevents the 2-5A probe from binding [1, 3]: about 20 nM
- competition with 2-5A probe binding [1]: completely prevents probe binding

- competition with 2-5A probe binding [2]: not prevented
Molecule: (A2'p)2 A
- concentration required to prevent 2-5A probe binding [1, 3]: 10 µM
- competition with 2-5A probe binding [1]: fails to interfere with binding
- fold higher concentration than trimer 2-5A required to prevent probe binding ([1]; relative to p3 (A2'p)2 A at about 20 nM): 500 fold

Molecule: p3 I2'pA2'pA
- concentration required to prevent 2-5A probe binding [1, 3]: about 1.0 μM

Molecule: p3 A2'pA
- concentration required to prevent 2-5A probe binding [1, 3]: > 10 µM

- 2-5A binding activity, % of clone ZB1 (2-5A probe): 1.9%
B1: ZB14: murine 2-5A-dependent RNase deletion clone, amino acids 1 to 265, one P-loop motif deleted (protein, UniProt Q05921 1-265, looked up, fragment)
chain: METPDYNTPQGGTPSAGSQRTVVEDDSSLIKAVQKGDVVRVQQLLEKGADANACEDTWGWTPLHNAVQAGRVDIVNLLLSHGADPHRRKKNGATPFIIAGIQGDVKLLEILLSCGADVNECDENGFTAFMEAAERGNAEALRFLFAKGANVNLRRQTTKDKRRLKQGGATALMSAAEKGHLEVLRILLNDMKAEVDARDNMGRNALIRTLLNWDCENVEEITSILIQHGADVNVRGERGKTPLIAAVERKHTGLVQMLLSREGIN

- 2-5A binding activity, % of clone ZB1 (2-5A probe): completely lacking
B2: ZB15: murine 2-5A-dependent RNase deletion clone, amino acids 1 to 218, both P-loop motifs deleted (protein, UniProt Q05921 1-218, looked up, fragment)
chain: METPDYNTPQGGTPSAGSQRTVVEDDSSLIKAVQKGDVVRVQQLLEKGADANACEDTWGWTPLHNAVQAGRVDIVNLLLSHGADPHRRKKNGATPFIIAGIQGDVKLLEILLSCGADVNECDENGFTAFMEAAERGNAEALRFLFAKGANVNLRRQTTKDKRRLKQGGATALMSAAEKGHLEVLRILLNDMKAEVDARDNMGRNALIRTLLNWDCENV

- loss of 2-5A binding activity as compared to clone ZB1 (2-5A probe): about 26%
B3: ZB11: murine 2-5A-dependent RNase deletion clone, amino acid residues 1 to 342 (protein, UniProt Q05921 1-342, looked up, fragment)
chain: METPDYNTPQGGTPSAGSQRTVVEDDSSLIKAVQKGDVVRVQQLLEKGADANACEDTWGWTPLHNAVQAGRVDIVNLLLSHGADPHRRKKNGATPFIIAGIQGDVKLLEILLSCGADVNECDENGFTAFMEAAERGNAEALRFLFAKGANVNLRRQTTKDKRRLKQGGATALMSAAEKGHLEVLRILLNDMKAEVDARDNMGRNALIRTLLNWDCENVEEITSILIQHGADVNVRGERGKTPLIAAVERKHTGLVQMLLSREGINIDARDNEGKTALLIAVDKQLKEIVQLLLEKGADKCDDLVWIARRNHDYHLVKLLLPYVANPDTDPPAGDWSPHSSRW

- 2-5A binding activity, % of clone ZB1 (2-5A probe): about 38.3%
B4: ZB13: murine 2-5A-dependent RNase deletion clone, amino acids 1 to 294 (protein, UniProt Q05921 1-294, looked up, fragment)
chain: METPDYNTPQGGTPSAGSQRTVVEDDSSLIKAVQKGDVVRVQQLLEKGADANACEDTWGWTPLHNAVQAGRVDIVNLLLSHGADPHRRKKNGATPFIIAGIQGDVKLLEILLSCGADVNECDENGFTAFMEAAERGNAEALRFLFAKGANVNLRRQTTKDKRRLKQGGATALMSAAEKGHLEVLRILLNDMKAEVDARDNMGRNALIRTLLNWDCENVEEITSILIQHGADVNVRGERGKTPLIAAVERKHTGLVQMLLSREGINIDARDNEGKTALLIAVDKQLKEIVQLLLE
